Experimental data taken from article PMC7531004, “Discovery of gramicidin A analogues with altered activities by multidimensional screening of a one-bead-one-compound library” (Nature Communications, 2020).
“And” between values parts separate entries of the source, which are not always exact repeats. Equal values may be shown once. Read-outs that look alike come from different tables or passages of the source. Where a SMILES comes first, the peptide text is derived from it. [ ]: non-standard residue; d: D form. The star is where a group is joined. NHCH2CH2OH = OCCN*; For = O=C*

Key:
[1] = tested on: Enterococcus faecalis JCM5803; settings: for antibacterial activity/MIC: E. faecalis; for Antibacterial activity MIC: JCM5803
Outline: (§1)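 MICs by CLSI broth microdilution in cation-adjusted Mueller Hinton Broth, with 5% laked horse blood added for streptococci, over 64–0.00024 µg/mL peptide.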

[2] = tested on: Listeria monocytogenes 10403S; settings: for antibacterial activity/MIC: L. monocytogenes
Outline: as §1

[3] = tested on: Streptococcus agalactiae JCM5671; settings: for Antibacterial activity MIC: JCM5671; for antibacterial activity/MIC: S. agalactiae
Outline: as §1

[4] = tested on: Streptococcus pneumoniae NBRC 102642; settings: for antibacterial activity/MIC: S. pneumoniae; for Antibacterial activity MIC: NBRC 102642
Outline: as §1

[5] = tested on: Streptococcus pyogenes SSI-9; settings: for antibacterial activity/MIC: S. pyogenes; for Antibacterial activity MIC: SSI-9
Outline: as §1

[6] = tested on: MSSA1 (methicillin-susceptible Staphylococcus aureus); format: cell-based
[7] = Membrane disruption assay of purified peptides (carboxyfluorescein leakage); format: biochemical; set-up: key: % lysis; Triton X-100 = 100%, DMSO = 0%; settings: three replicate lines
[8] = H+/Na+ transport assay of purified peptides; settings: for Supplementary Figure 5 dose-response value (H+/Na+ transport): three replicate lines
[9] = read-out: EC50, H+/Na+ transport assay, 1st experiment
[10] = read-out: EC50, H+/Na+ transport assay, 2nd experiment
[11] = read-out: EC50, H+/Na+ transport assay, 3rd experiment
[12] = read-out: H+/Na+ transport activity EC50, EYPC/EYPG (19:1) LUVs
[13] = read-out: H+/Na+ transport activity/EC50, mean ± SD of three independent experiments

antibacterial activity/MIC [1] [µg/mL]	Antibacterial activity MIC [1] [µM]	antibacterial activity/MIC [2] [µg/mL]	Antibacterial activity MIC [3] [µM]	antibacterial activity/MIC [3] [µg/mL]	antibacterial activity/MIC [4] [µg/mL]	antibacterial activity/MIC [5] [µg/mL]	antibacterial activity/MIC [6] [µg/mL]	Compound	Supplementary Figure 1 dose-response value ([7]; concentration 0.000512 nM)	Supplementary Figure 1 dose-response value ([7]; concentration 0.00256 nM)	Supplementary Figure 1 dose-response value ([7]; concentration 0.0128 nM)	Supplementary Figure 1 dose-response value ([7]; concentration 0.064 nM)	Supplementary Figure 1 dose-response value ([7]; concentration 0.32 nM)	Supplementary Figure 1 dose-response value ([7]; concentration 1.6 nM)	Supplementary Figure 1 dose-response value ([7]; concentration 8 nM)	Supplementary Figure 1 dose-response value ([7]; concentration 40 nM)	Supplementary Figure 1 dose-response value ([7]; concentration 200 nM)	Supplementary Figure 1 dose-response value ([7]; concentration 1000 nM)	Supplementary Figure 1 dose-response value ([7]; concentration 5000 nM)	Supplementary Figure 5 dose-response value (H+/Na+ transport) ([8]; concentration 0.000512 nM)	also measured
2	1.1	4	8.6	16	0.016	0.13	4	CC(C)C[C@@H](NC(=O)[C@H](C)NC(=O)CNC(=O)[C@@H](NC=O)C(C)C)C(=O)N[C@@H](C)C(=O)N[C@@H](C(=O)N[C@H](C(=O)N[C@@H](C(=O)N[C@@H](Cc1c[nH]c2ccccc12)C(=O)N[C@H](CC(C)C)C(=O)N[C@@H](Cc1c[nH]c2ccccc12)C(=O)N[C@H](CC(C)C)C(=O)N[C@@H](Cc1c[nH]c2ccccc12)C(=O)N[C@@H](C(=O)N[C@@H](Cc1c[nH]c2ccccc12)C(=O)NCCO)C(C)C)[C@H](C)O)C(C)C)C(C)C [B12] (For-VGA[dL]A[dV]V[dT]W[dL]W[dL]W[dV]W-NHCH2CH2OH)	14.3151 and 14.218 and 7.531	2.34 and -6.416 and 3.105	5.88 and 8.131 and 3.94	3.705 and 7.973 and 3.229	3.808 and 6.955 and 6.51	8.996 and 0.3041 and 5.919	7.9647 and 15.5867 and 17.3879	5.306 and 8.903 and 13.6255	28.0368 and 20.6509 and 3.758	25.4415 and 27.5334 and 28.0661	41.4626 and 58.8643 and 47.4572	2.818 and 0.0271 and -0.589	Supplementary Figure 5 dose-response value (H+/Na+ transport) ([8]; concentration 0.00256 nM): 3.476 and 5.315 and 5.077; Supplementary Figure 5 dose-response value (H+/Na+ transport) ([8]; concentration 0.0128 nM): 4.761 and 4.753 and 4.729; Supplementary Figure 5 dose-response value (H+/Na+ transport) ([8]; concentration 0.064 nM): 8.321 and 5.0339 and 7.369; Supplementary Figure 5 dose-response value (H+/Na+ transport) ([8]; concentration 0.32 nM): 16.8579 and 20.7391 and 16.934; Supplementary Figure 5 dose-response value (H+/Na+ transport) ([8]; concentration 1.6 nM): 35.2545 and 35.7349 and 38.3822; Supplementary Figure 5 dose-response value (H+/Na+ transport) ([8]; concentration 8 nM): 63.7974 and 60.2094 and 62.8038; Supplementary Figure 5 dose-response value (H+/Na+ transport) ([8]; concentration 40 nM): 71.4784 and 67.4712 and 69.6703; Supplementary Figure 5 dose-response value (H+/Na+ transport) ([8]; concentration 200 nM): 72.1513 and 73.1412 and 71.1696; Supplementary Figure 5 dose-response value (H+/Na+ transport) ([8]; concentration 1000 nM): 74.8337 and 73.0658 and 70.6415; Supplementary Figure 5 dose-response value (H+/Na+ transport) ([8]; concentration 5000 nM): 78.5724 and 78.4083 and 76.7501; EC50 [8, 9]: 1.66 nM; EC50 [8, 10]: 0.838 nM; EC50 [8, 11]: 2.98 nM; EC50 [8, 12]: 1.8 nM; EC50 [8, 13]: 1.83 ± 1.08 nM
4	2.1	2	4.2	8	0.063	1	8	CC(C)C[C@@H](NC(=O)[C@H](C)NC(=O)CNC(=O)[C@@H](NC=O)C(C)C)C(=O)N[C@@H](C)C(=O)N[C@@H](C(=O)N[C@H](C(=O)N[C@@H](C(=O)N[C@@H](Cc1c[nH]c2ccccc12)C(=O)N[C@H](CC(C)C)C(=O)N[C@@H](Cc1c[nH]c2ccccc12)C(=O)N[C@H](CC(C)C)C(=O)N[C@@H](Cc1c[nH]c2ccccc12)C(=O)N[C@H](CC(C)C)C(=O)N[C@@H](Cc1c[nH]c2ccccc12)C(=O)NCCO)[C@H](C)O)C(C)C)C(C)C [B13] (For-VGA[dL]A[dV]V[dT]W[dL]W[dL]W[dL]W-NHCH2CH2OH)	12.6222 and 8.681 and 14.1878	5.0387 and -8.856 and 0.4118	17.1111 and 10.8226 and 6.743	2.158 and 0.4656 and 8.156	0.4983 and 9.035 and 4.354	8.628 and -5.518 and 5.634	16.7483 and 16.868 and 17.3839	8.5256 and 14.4302 and 19.7817	29.195 and 23.7339 and 11.0358	32.784 and 37.4398 and 33.6736	66.9777 and 54.6664 and 50.7322	3.017 and 1.952 and 2.608	Antibacterial activity MIC [4]: 0.033 µM; Antibacterial activity MIC [5]: 0.53 µM; Supplementary Figure 5 dose-response value (H+/Na+ transport) ([8]; concentration 0.00256 nM): 3.102 and 3.766 and 3.197; Supplementary Figure 5 dose-response value (H+/Na+ transport) ([8]; concentration 0.0128 nM): 2.802 and 3.448 and 5.087; Supplementary Figure 5 dose-response value (H+/Na+ transport) ([8]; concentration 0.064 nM): 7.573 and 8.7038 and 6.571; Supplementary Figure 5 dose-response value (H+/Na+ transport) ([8]; concentration 0.32 nM): 17.1662 and 17.5754 and 16.2478; Supplementary Figure 5 dose-response value (H+/Na+ transport) ([8]; concentration 1.6 nM): 34.5009 and 38.0687 and 36.068; Supplementary Figure 5 dose-response value (H+/Na+ transport) ([8]; concentration 8 nM): 62.5081 and 62.2715 and 60.6584; Supplementary Figure 5 dose-response value (H+/Na+ transport) ([8]; concentration 40 nM): 69.7421 and 65.8817 and 68.9295; Supplementary Figure 5 dose-response value (H+/Na+ transport) ([8]; concentration 200 nM): 70.9489 and 69.9169 and 66.3002; Supplementary Figure 5 dose-response value (H+/Na+ transport) ([8]; concentration 1000 nM): 70.4102 and 68.4527 and 68.0392; Supplementary Figure 5 dose-response value (H+/Na+ transport) ([8]; concentration 5000 nM): 77.0905 and 71.4732 and 77.0208; EC50 [8, 9]: 1.54 nM; EC50 [8, 10]: 1.6 nM; EC50 [8, 11]: 1.51 nM; EC50 [8, 12]: 1.6 nM; EC50 [8, 13]: 1.55 ± 0.04 nM
8	4.3	> 64	34	64	1	32	16	CC(C)C[C@@H](NC(=O)[C@H](C)NC(=O)[C@H](NC(=O)[C@H](C)NC(=O)CNC(=O)[C@@H](NC=O)C(C)C)[C@H](C)O)C(=O)N[C@H](C(=O)N[C@H](CC(C)C)C(=O)N[C@@H](Cc1c[nH]c2ccccc12)C(=O)N[C@@H](C(=O)N[C@@H](Cc1c[nH]c2ccccc12)C(=O)N[C@H](CC(C)C)C(=O)N[C@@H](Cc1c[nH]c2ccccc12)C(=O)N[C@@H](C(=O)N[C@@H](Cc1c[nH]c2ccccc12)C(=O)NCCO)C(C)C)[C@H](C)O)C(C)C [B21] (For-VGA[dT]A[dL]V[dL]W[dT]W[dL]W[dV]W-NHCH2CH2OH)	14.8974 and 5.3396 and 11.8083	18.072 and -2.382 and 0.726	-1.184 and 8.357 and 7.1241	-0.803 and 4.138 and 1.858	1.612 and 3.04 and 7.439	5.221 and -3.492 and 12.0075	15.0705 and 19.6578 and 20.2333	21.4059 and 19.6002 and 32.4332	39.5964 and 37.7798 and 25.5852	40.751 and 51.3594 and 47.003	73.5609 and 68.2985 and 59.7258	2.384 and 1.443 and 2.029	Antibacterial activity MIC ([2]; 10403S): > 34 µM; Antibacterial activity MIC [4]: 0.53 µM; Antibacterial activity MIC [5]: 17 µM; Supplementary Figure 5 dose-response value (H+/Na+ transport) ([8]; concentration 0.00256 nM): 3.95 and 1.0017 and 1.216; Supplementary Figure 5 dose-response value (H+/Na+ transport) ([8]; concentration 0.0128 nM): 7.632 and 2.998 and 3.58; Supplementary Figure 5 dose-response value (H+/Na+ transport) ([8]; concentration 0.064 nM): 6.775 and 3.579 and 3.365; Supplementary Figure 5 dose-response value (H+/Na+ transport) ([8]; concentration 0.32 nM): 12.3823 and 9.367 and 13.3536; Supplementary Figure 5 dose-response value (H+/Na+ transport) ([8]; concentration 1.6 nM): 41.7064 and 40.5042 and 40.751; Supplementary Figure 5 dose-response value (H+/Na+ transport) ([8]; concentration 8 nM): 73.419 and 69.4178 and 73.375; Supplementary Figure 5 dose-response value (H+/Na+ transport) ([8]; concentration 40 nM): 75.8465 and 74.348 and 76.0982; Supplementary Figure 5 dose-response value (H+/Na+ transport) ([8]; concentration 200 nM): 78.878 and 79.2127 and 80.049; Supplementary Figure 5 dose-response value (H+/Na+ transport) ([8]; concentration 1000 nM): 81.8535 and 78.0432 and 78.4426; Supplementary Figure 5 dose-response value (H+/Na+ transport) ([8]; concentration 5000 nM): 82.5653 and 78.9179 and 76.8722; EC50 [8, 9]: 1.57 nM; EC50 [8, 10]: 1.58 nM; EC50 [8, 11]: 1.32 nM; EC50 [8, 12]: 1.5 nM; EC50 [8, 13]: 1.49 ± 0.15 nM
